# Test results reported in publication PMC7168333, “5-(Carbamoylmethylene)-oxazolidin-2-ones as a Promising Class of Heterocycles Inducing Apoptosis Triggered by Increased ROS Levels and Mitochondrial Dysfunction in Breast and Cervical Cancer” (Biomedicines, 2020).
# pIC50: −log10 of the molar value.
# Legend:
# MCF-10A cells = assay: MTT cell viability assay, MCF-10A; assay type: cell-based, human; settings: Homo sapiens, MCF-10A, 72 h
# MCF-7 cells = assay: MTT cell viability assay, MCF-7; assay type: cell-based; settings: Homo sapiens, MCF7, 72 h
# Protocol: Cell viability was assessed by using 3-(4,5-dimethylthiazol-2-y1)-2,5-diphenyltetrazolium bromide (MTT) assay (Sigma-Aldrich, Milan, Italy), as already reported. […] Untreated cells were added with the vehicle (DMSO) and used as a control. After treatment, fresh MTT reagent (used at a final concentration of 0.5 mg/mL) was added, prolonging incubation for 2 h according to the manufacturer’s protocol. Absorbance at 570 nm was measured in each well, including controls, and every experiment was carried out in triplicate.
# (§1) For each sample, mean absorbance was expressed as a percentage of the control and plotted vs. drug concentration, in order to determine the IC50 value (i.e., drug concentration able to decrease cell viability by 50% with respect to the control) for each cell line, generating a sigmoidal dose–response curve by the use of GraphPad Prism 7 software (GraphPad Inc., San Diego, CA, USA). Mean values and standard deviations (SD) of three independent experiments carried out in triplicate were reported. […]
# HeLa cells = assay: MTT cell viability assay, HeLa; assay type: cell-based; settings: Homo sapiens, 72 h
# Protocol: Cell viability was assessed by using 3-(4,5-dimethylthiazol-2-y1)-2,5-diphenyltetrazolium bromide (MTT) assay (Sigma-Aldrich, Milan, Italy), as already reported. In brief, MCF-7 and HeLa cells (2 × 10^4 cells/well) were seeded in a 48-well plate and grown in complete medium overnight, then they were switched into DMEM-F12 supplemented with 2% FBS and treated with increasing concentrations (1, 10, 50, 75, and 100 µM) of different oxazolidin-2-ones derivatives (OA-OI) or doxorubicin for 72 h. Untreated cells were added with the vehicle (DMSO) and used as a control. After treatment, fresh MTT reagent (used at a final concentration of 0.5 mg/mL) was added, prolonging incubation for 2 h according to the manufacturer’s protocol. Absorbance at 570 nm was measured in each well, including controls, and every experiment was carried out in triplicate.
# as §1
compound,measurement,setting,value
"COc1cccc2c1C(=O)c1c(O)c3c(c(O)c1C2=O)C[C@@](O)(C(=O)CO)C[C@@H]3O[C@H]1C[C@H](N)[C@H](O)[C@H](C)O1 [DOX, doxorubicin, reference compound]",pIC50,MCF-10A cells,4.50
same,pIC50,MCF-7 cells,5.39
same,pIC50,HeLa cells,5.44
CC1(C)/C(=C\C(=O)N2CCCCC2)OC(=O)N1Cc1ccccc1 [OA],pIC50,MCF-10A cells,3.38
same,pIC50,MCF-7 cells,4.24
same,pIC50,HeLa cells,4.28
CC1(C)/C(=C/C(=O)N2CCCCC2)OC(=O)N1Cc1ccccc1 [OB],pIC50,MCF-10A cells,3.33
same,pIC50,MCF-7 cells,3.91
same,pIC50,HeLa cells,4.01
CCN(CC)C(=O)/C=C1\OC(=O)N(Cc2ccccc2)C1(C)C [OC],pIC50,MCF-10A cells,3.31
same,pIC50,MCF-7 cells,3.79
same,pIC50,HeLa cells,4.00
CCCCN1C(=O)O/C(=C/C(=O)N2CCOCC2)C12CCCCC2 [OD],pIC50,MCF-10A cells,3.30
same,pIC50,MCF-7 cells,3.47
same,pIC50,HeLa cells,3.81
